Test results reported in patent publication CN108159055A, “治疗乳腺癌的长效递药系统、其制备方法及应用” (XI'AN LIBANG MEDICINE SCIENCE AND TECHNOLOGY Co Ltd, priority 2018, dated 2018).

Assay: Miscibility of solvents with oils (Test Example 2 part 1, Table 2)
Type: physicochemical
Details: no phospholipid

CC(=O)OCC(COC(C)=O)OC(C)=O.CC(=O)OCC(COC(C)=O)OC(C)=O [三乙酸甘油酯]
miscibility (with benzyl alcohol): 混溶 | miscibility (with benzyl benzoate): 混溶 | miscibility (with ethanol): 不混溶 | miscibility (with ethyl lactate): 不混溶
